Read-outs that look alike come from different tables or passages of the source. Square brackets hold non-standard residues; d marks the D form. Peptide text beside a SMILES is read from it. Aib = CC(C)(N)C(=O)O

Here are results for one molecule from US20250296960A1, “PEPTIDE COMPOSITIONS AND METHODS OF USE THEREOF” (priority 2022, published 2025).

A short description of series [1]: In vitro enzymatic stability against FaSSIF/P (pancreatin in FaSSIF, pH 6.5). The class given is in vitro ADME. The following applies: simulated gi fluid, pH 6.5, Half-life (min). As to the method: This study was conducted to determine the enzymatic stability of SEQ ID NOs. 77, 86, 87, 89, 90, and 91 after biotinylation in artificial intestinal environment. The test samples were prepared by mixing stock solutions of peptide and pancreatin dissolved in FaSSIF solution (pH 6.5) in a weight ratio of 25:1. The test samples were incubated at 37° C. for 120 min. The sampling from test samples was proceeded at the predetermined time points (10, 30, 60, and 120 min) and stopped by 10% TFA solution.
(§1) Analytical HPLC was performed to determine the remaining amount on an ACQUITY Premier system (Waters, USA) with an ACQUITY CSH C18 column (Waters, USA) at 35° C. using 0.1% TFA in water and acetonitrile. The remaining amount was determined as a percentage of the peak area at the sampling time point relative to the peak area of the initial sample.
For the stability against FaSSIF/P, the test samples were prepared by mixing stock solutions of peptide and pancreatin dissolved in FaSSIF solution (pH 6.5) in a weight ratio of 19:1. The test samples were incubated at 37° C. for 120 min. The sampling from test samples was proceeded at the predetermined time points (10, 30, 60, and 120 min) and stopped by 10% TFA solution.

The format of series [2] is in vitro ADME. The settings on record: pH 7.8. As for the experimental part:
For the stability against trypsin, the test samples were prepared by mixing stock solutions of peptide and trypsin dissolved in 50 mM PBS (pH 7.8) containing 0.02% PS80 in a weight ratio of 10:1. The test samples were incubated at 37° C. for 180 min. The sampling from test samples was proceeded at the predetermined time points (10, 30, 60, 90, 120, and 180 min) and stopped by 10% TFA solution.
as §1

For series [3] the following is noted: rat, in vivo, iv. As to the method:
This study was conducted to evaluate the PK profile of SEQ ID NOs. 77, 102, and 103 and compare the PK profile by the different lipidated structure of peptides in rat plasma by IV administration. SEQ ID NOs. The peptides were delivered at 0.02% PS80 in PBS and dosing volume was 2.5 mL/kg.
The animals were not fasted prior to dosing. 0.2-0.4 mL of whole blood was taken from vein at each time point (0.167, 0.5, 1, 2, 4, 6, 8, 24, and 48 hr after administration) and transferred into the heparin coated tube.
The resulting plasma of 0.1-0.2 mL obtained by centrifugation of the blood samples was transferred into the tube and stored at −70° C. until analysis. The concentrations of peptides in plasma were determined by LC-MS/MS analysis.

Regarding `CC[C@H](C)[C@H](NC(=O)[C@H](CC(C)C)NC(=O)[C@H](Cc1c[nH]c2ccccc12)NC(=O)[C@H](CC(C)C)NC(=O)[C@@H](NC(=O)[C@H](Cc1ccccc1)NC(=O)[C@H](CC(=O)O)NC(=O)CNC(=O)[C@H](C)NC(=O)[C@H](Cc1c[nH]c2ccccc12)NC(=O)[C@@H]1CCCN1C(=O)CNC(=O)[C@H](CC(=O)O)NC(=O)[C@H](CC(C)C)NC(=O)[C@H](Cc1ccc(O)cc1)NC(=O)[C@H](Cc1c[nH]c2ccccc12)NC(=O)[C@H](CO)NC(=O)[C@H](CCCCN)NC(=O)[C@H](CC(=O)O)NC(=O)[C@H](CO)NC(=O)[C@@H](NC(=O)[C@H](Cc1ccccc1)NC(=O)[C@@H](NC(=O)CNC(=O)[C@H](CCC(N)=O)NC(=O)C(C)(C)NC(=O)[C@@H](N)Cc1c[nH]cn1)[C@@H](C)O)[C@@H](C)O)C(C)C)C(=O)N[C@@H](CCC(=O)O)C(=O)NCC(=O)NCC(=O)N1CCC[C@H]1C(=O)N[C@@H](CO)C(=O)N[C@@H](CO)C(=O)NCC(=O)N[C@@H](C)C(=O)N1CCC[C@H]1C(=O)N1CCC[C@H]1C(=O)N1CCC[C@H]1C(=O)N[C@@H](CO)C(=O)N[C@@H](CS)C(=O)O` [compound 77, HAibQGT FTSDKSWYLDGPWAGDFVLWLIEGGPSSGAPPPSC] (H-H[Aib]QGTFTSDKSWYLDGPWAGDFVLWLIEGGPSSGAPPPSC-OH; N-terminus and C-terminus assumed), the half-life in series [1] was 0.657 h; in series [1] (FaSSIF/P) it was 0.615 h; in series [2] it was 1.54 h; in series [3] (100 nmol/kg), 7.11 ± 0.4 h. Besides, in series [3], the “PK parameter values (half-life and AUCinf/dose), comparison in words” value is reported as “significantly low”. The “AUCinf/dose” value in series [3] (100 nmol/kg) came to 156.76 ± 27.16 kg·h/L.
